According to patent US10894807B2 (Siemens Medical Solutions USA, Inc., priority 2011, dated 2021):

target: human PSMA (Homo sapiens (Human), UniProt Q04609); assay: Enzymatic assay for in vitro evaluation of PSMA inhibitors (fluorescent assay of PSMA activity, NAAG substrate, OPA detection of glutamate); format: biochemical; details: not given
Sequence (Q04609 whole entry): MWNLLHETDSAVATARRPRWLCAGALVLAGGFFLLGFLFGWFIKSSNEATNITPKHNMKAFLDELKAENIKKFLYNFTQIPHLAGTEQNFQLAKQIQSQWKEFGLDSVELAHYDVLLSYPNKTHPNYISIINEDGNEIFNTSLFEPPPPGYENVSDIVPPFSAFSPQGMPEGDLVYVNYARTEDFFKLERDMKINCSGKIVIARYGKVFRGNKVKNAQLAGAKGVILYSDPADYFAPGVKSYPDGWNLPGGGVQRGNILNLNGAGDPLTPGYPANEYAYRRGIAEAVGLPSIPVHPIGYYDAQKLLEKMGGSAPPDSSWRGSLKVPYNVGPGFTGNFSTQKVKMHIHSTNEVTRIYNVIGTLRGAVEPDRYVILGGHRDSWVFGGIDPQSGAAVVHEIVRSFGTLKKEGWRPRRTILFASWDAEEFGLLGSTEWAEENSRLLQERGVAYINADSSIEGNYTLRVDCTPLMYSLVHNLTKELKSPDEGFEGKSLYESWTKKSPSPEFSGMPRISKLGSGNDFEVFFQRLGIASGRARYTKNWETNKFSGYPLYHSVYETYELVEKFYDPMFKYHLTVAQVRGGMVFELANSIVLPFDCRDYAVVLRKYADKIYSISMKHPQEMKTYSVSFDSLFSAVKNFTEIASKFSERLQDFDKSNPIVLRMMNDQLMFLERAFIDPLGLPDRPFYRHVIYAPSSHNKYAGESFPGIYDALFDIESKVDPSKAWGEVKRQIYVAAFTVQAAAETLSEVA

Compound	PSMA Blkg % (10 μM) [%]	Ki [nM]
CC(=O)Oc1ccc2c(c1)Oc1cc(OC(C)=O)ccc1C21OC(=O)c2ccc(C(=O)NCCCC[C@H](NC(=O)N[C@@H](CCC(=O)O)C(=O)O)C(=O)O)cc21 [P185, (S)-2-(3-((S)-1-Carboxy-5-(3′,6′-diacetoxy-3-oxo-3H-spiro[isobenzofuran-1,9′-xanthen]-6-ylcarboxamido)pentyl)ureido)pentanedioic Acid]	99	
O=C(O)CC[C@H](NC(=O)N[C@@H](CCCCn1cc(CCCF)nn1)C(=O)O)C(=O)O [P188, (S)-2-(3-((S)-1-Carboxy-5-(4-(3-fluoropropyl)-1H-1,2,3-triazol-1-yl)pentyl)ureido)-pentanedioic Acid]		6.6
O=C(O)C(Cn1cc(CCCF)nn1)CP(=O)(O)O (stereo not shown) [P189, 3-(4-(3-Fluoropropyl)-1H-1,2,3-triazol-1-yl)-2-(phosphonomethyl)propanoic Acid]		> 688
O=C(O)C(Cn1ccnn1)CP(=O)(O)O (stereo not shown) [P190, 2-((1H-1,2,3-Triazol-1-yl)methyl)-3-phosphonopropanoic Acid]		188

same assay, conditions: 10 μM

PSMA Blkg % (10 μM) [%]	Compound
78	CN(C(=O)N[C@@H](CCC(=O)O)C(=O)O)[C@@H](Cc1ccc(NC(=O)CCCn2cc(CCCF)nn2)cc1)C(=O)O [P191, (S)-2-(3-((S)-1-Carboxy-2-(4-(4-(4-(3-fluoropropyl)-1H-1,2,3-triazol-1-yl)-butanamido)phenyl)-ethyl)-3-methylureido)pentanedioic Acid]
29	O=C(O)Cn1cc(C[C@H](NC(=O)N[C@@H](CCCCNC(=O)OCc2ccccc2)C(=O)O)C(=O)O)nn1 [P192, (9S,13S)-9-Carboxy-13-((1-(carboxymethyl)-1H-1,2,3-triazol-4-yl)methyl)-3,11-dioxo-1-phenyl-2-oxa-4,10,12-triazatetradecan-14-oic Acid]

same assay, conditions: compound at 10 μM

Compound	PSMA Blkg % (10 μM) [%]
Cc1ccc(S(=O)(=O)NCCCC[C@@H](C(=O)O)N(C)C(=O)N[C@@H](CCC(=O)O)C(=O)O)cc1 [P177, (S)-2-(3-((S)-1-Carboxy-5-(4-methylphenylsulfonamido)pentyl)-3-methylureido)pentanedioic Acid]	38
O=C(O)CC[C@H](NC(=O)N(O)[C@@H](CCCCNC(=O)c1ccc(F)nc1)C(=O)O)C(=O)O [P182, (S)-2-(3-((S)-1-Carboxy-5-(6-fluoronicotinamido)pentyl)-3-hydroxyureido)pentanedioic Acid]	92
CN(C(=O)N[C@@H](CCC(=O)O)C(=O)O)[C@@H](CCCCNCc1ccc(F)cc1)C(=O)O [P184, (S)-2-(3-((S)-1-Carboxy-5-(4-fluorobenzylamino)pentyl)-3-methylureido)pentanedioic Acid]	10
CC(F)C(=O)Nc1ccc(C(=O)NCCCC[C@H](NC(=O)N(O)[C@@H](CCC(=O)O)C(=O)O)C(=O)O)cc1 (stereo partly drawn) [P186, (S)-2-(3-((S)-1-Carboxy-5-(4-(2-fluoropropanamido)benzamido)pentyl)-1-hydroxyureido)pentanedioic Acid]	85
O=C(O)CC[C@H](NC(=O)N[C@@H](CCCCn1cc(CCCF)nn1)C(=O)O)C(=O)O [P188, (S)-2-(3-((S)-1-Carboxy-5-(4-(3-fluoropropyl)-1H-1,2,3-triazol-1-yl)pentyl)ureido)-pentanedioic Acid]	99

Continued, values first:

PSMA Blkg % (10 μM) [%]	Compound
1	O=C(O)CC[C@H](NS(=O)(=O)NC(=O)OCc1ccccc1)C(=O)O [P178, (S)-2-((N-((Benzyloxy)carbonyl)sulfamoyl)amino)pentanedioic Acid]
4	O=C(O)CC[C@@H](C(=O)O)N(O)S(=O)(=O)NC(=O)OCc1ccccc1 [P179, (S)-2-((N-((Benzyloxy)carbonyl)sulfamoyl)(hydroxy)amino)pentanedioic Acid]
5	NS(=O)(=O)N(OC(=O)OCc1ccccc1)[C@@H](CCC(=O)O)C(=O)O [P180]
39	[N-]=[N+]=Nc1ccc(CCCC(=O)NS(=O)(=O)N[C@@H](CCC(=O)O)C(=O)O)cc1 [P181, (S)-2-((N-(4-(4-Azidophenyl)butanoyl)sulfamoyl)amino)pentanedioic Acid]
36	[N-]=[N+]=NCCCCC(=O)NS(=O)(=O)N[C@@H](CCC(=O)O)C(=O)O [P183, (S)-2-((N-(5-Azidopentanoyl)sulfamoyl)amino)pentanedioic Acid]
